The subject of assay [1] is Rat basophilic leukemia (RBL) cells. The experiment in a line: LTB4 secretion assay in RBL (rat basophilic leukemia cells). To be noted: Rattus norvegicus, RBL. Type of assay: cell-based. The method, boiled down:
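Cells seeded 2×10^4/well the day before, then pre-incubated 15 min at 37 °C in EMEM/0.5% FBS with compound (5 nM to 100 uM). Stimulation with 2.5 uM arachidonic acid plus 5 uM A23187 (final) for 10 min at 37 °C; LTB4 in supernatant quantified by EIA.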

The target of assay [2] is T1, human 5-LOX (Homo sapiens, UniProt P09917).
T1 construct: purchased Cayman 60402; host or cells: insect cells (lysate)
T1 sequence (P09917 1-674): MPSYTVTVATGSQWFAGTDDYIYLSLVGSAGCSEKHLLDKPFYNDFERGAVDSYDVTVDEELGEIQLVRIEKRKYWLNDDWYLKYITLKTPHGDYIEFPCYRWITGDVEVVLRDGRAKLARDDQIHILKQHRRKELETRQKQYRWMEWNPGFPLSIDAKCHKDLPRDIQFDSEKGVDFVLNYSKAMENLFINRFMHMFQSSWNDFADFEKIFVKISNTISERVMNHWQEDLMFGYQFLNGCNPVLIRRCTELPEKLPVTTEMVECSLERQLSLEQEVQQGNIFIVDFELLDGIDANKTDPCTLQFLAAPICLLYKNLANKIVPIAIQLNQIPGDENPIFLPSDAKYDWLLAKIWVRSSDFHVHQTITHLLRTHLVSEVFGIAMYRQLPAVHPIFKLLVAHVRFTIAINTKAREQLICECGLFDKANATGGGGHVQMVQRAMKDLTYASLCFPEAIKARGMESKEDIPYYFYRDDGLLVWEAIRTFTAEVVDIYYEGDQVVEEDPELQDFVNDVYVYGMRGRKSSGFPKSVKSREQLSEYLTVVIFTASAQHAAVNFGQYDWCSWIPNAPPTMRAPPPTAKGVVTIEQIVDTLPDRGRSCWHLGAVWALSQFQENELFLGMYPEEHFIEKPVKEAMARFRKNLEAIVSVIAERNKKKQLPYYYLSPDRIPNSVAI
The experiment in a line: 5-LOX enzyme activity, fluorescence method (5-HPETE, H2DCFDA). Type of assay: biochemical. To be noted: read-out: 5-LO (IC50). The method, boiled down:
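Compound (0.5 nM to 10 uM) pre-incubated 5 min with enzyme; reaction started with ATP (100 uM final) and arachidonic acid (3 uM final). All steps at room temperature, fluorescence read-out.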

By EC50 is commonly meant the midpoint of the concentration-response curve. The low end stands for an effect from little substance, the high end for a need for much substance. In general, IC50 refers to the midpoint of a concentration-inhibition curve.

With `Clc1ccc(Oc2ccc(CNc3nc4ccc(NC5COC5)cc4n3C3COC3)cc2)nc1` [Compound 266], the EC50 in assay [1] lay in the range of 10 to 20 µM. In addition, the IC50 in assay [2] is under 1 µM.
For the molecule `Cn1c(NCc2ccc(Oc3ccc(Cl)cn3)c(F)c2)nc2ccc(N)cc21` [Compound 267], the concentration giving a half-maximal response (EC50) in assay [1] was under 10 µM. In addition, in assay [2], the IC50 was under 1 µM.
The molecule `Cn1c(NCc2ccc(Oc3ccc(Cl)cn3)cc2F)nc2ccc(N)cc21` [Compound 272] yielded an EC50 in assay [1] of under 10 µM. The IC50 in assay [2] was under 1 µM.
In the same order, the values of `CCC(Nc1nc2ccc(N)cc2n1C)c1ccc(Oc2ccc(Cl)cn2)cc1` (stereo not drawn) [Compound 274] are under 10 µM and under 1 µM.
The matching figures for `Cn1c(NCc2ccc(Oc3ccc(C(F)(F)F)cn3)cc2)nc2ccc(N)cc21` [Compound 276]: under 10 µM and under 1 µM.
In the same order, the values of `CCN(c1ccc2nc(NCc3ccc(Oc4ccc(Cl)cn4)cc3)n(C)c2c1)C1COC1` [Compound 278] are under 10 µM and under 1 µM.
With `Cn1c(NCc2ccc(Oc3ccc(Cl)nc3)cc2)nc2ccc(N)cc21` [Compound 280], the EC50 in assay [1] is under 10 µM. In addition, the IC50 in assay [2] was under 1 µM.
The matching figures for `Cc1cc(CNc2nc3ccc(N)cc3n2C)ccc1Oc1ccc(Cl)cn1` [Compound 282]: under 10 µM and under 1 µM.
In the same order, the values of `Cc1cc(CNc2nc3ccc(NC4COC4)cc3n2C)ccc1Oc1ccc(Cl)cn1` [Compound 283] are under 10 µM and under 1 µM.
In turn, `Cn1c(NCc2ccc(Oc3ccc(Cl)cn3)cc2Cl)nc2ccc(N)cc21` [Compound 285] came in with a concentration giving a half-maximal response (EC50) in assay [1] of under 10 µM. The IC50 in assay [2] was under 1 µM.
The molecule `CN(C)CCn1c(NCc2ccc(Oc3ccc(Cl)cn3)cc2)nc2ccc(N)cc21` [Compound 286] returned an EC50 in assay [1] of under 10 µM. For the same molecule, in assay [2], the 50% inhibitory concentration (IC50) is under 1 µM.
Molecule `Cn1c(NCc2ccc(Oc3ccc(Cl)cc3)nc2)nc2ccc(N)cc21` [Compound 287] came in with an EC50 in assay [1] of under 10 µM. In assay [2], the IC50 was under 1 µM.
The matching figures for `Cc1cc(Oc2ccc(Cl)cn2)ccc1CNc1nc2ccc(N)cc2n1C` [Compound 290]: under 10 µM and under 1 µM.
The matching figures for `Cn1c(NCc2ccc(Oc3ccc(OC(F)(F)F)cc3)cc2)nc2ccc(N)cc21` [Compound 292]: under 10 µM and under 1 µM.
The matching figures for `Cn1c(NCc2ccc(Oc3ccc(OC(F)(F)F)cc3)cc2)nc2ccc(NC3COC3)cc21` [Compound 293]: under 10 µM and under 1 µM.
`Cn1c(NCc2ccc(Oc3cnc(Cl)cn3)cc2)nc2ccc(N)cc21` [Compound 295]: the EC50 in assay [1] was under 10 µM. Besides, the IC50 in assay [2] was under 1 µM.
In the same order, the values of `Cn1c(NCc2ccc(Oc3ccc(Cl)cc3)cn2)nc2ccc(N)cc21` [Compound 297] are under 10 µM and under 1 µM.
`Cn1c(NCc2ccc(Oc3ccc(Cl)cn3)cn2)nc2ccc(N)cc21` [Compound 299] registered an EC50 in assay [1] of under 10 µM. In assay [2], the IC50 is under 1 µM.
In the same order, the values of `Cn1c(NCc2ccc(COc3ccc(Cl)cn3)cc2)nc2ccc(N)cc21` [Compound 304] are under 10 µM and under 1 µM.
The matching figures for `Cn1c(NCc2ccc(Oc3ccc(Cl)cn3)nc2)nc2ccc(N)cc21` [Compound 308]: over 20 µM and under 1 µM.
The matching figures for `Cn1c(NCc2ccc(C(=O)Nc3ccc(Cl)cn3)cc2)nc2ccc(N)cc21` [Compound 310]: over 20 µM and under 1 µM.
`Cc1ccc(Oc2ccc(CNc3nc4ccc(NC5COC5)cc4n3C)cc2)nn1` [Compound 312] yielded an EC50 in assay [1] of over 20 µM. In assay [2], the IC50 was under 1 µM.
In assay [1], `Cn1c(NCc2ccc(Oc3ccc(Cl)cn3)cc2)nc2ccc(NCCO)cc21` [Compound 313] registered an EC50 of under 10 µM. Also, the IC50 in assay [2] was under 1 µM.
On to `COCCNc1ccc2nc(NCc3ccc(Oc4ccc(Cl)cn4)cc3)n(C)c2c1` [Compound 316], for which the EC50 in assay [1] is under 10 µM. In addition, the IC50 in assay [2] is under 1 µM.
In the same order, the values of `Cn1c(N(CCO)Cc2ccc(Oc3ccc(Cl)cn3)cc2)nc2ccc(N)cc21` [Compound 317] are over 20 µM and under 1 µM.
Molecule `Cn1c(N(CCO)Cc2ccc(Oc3ccc(Cl)cn3)cc2)nc2ccc(NC3COC3)cc21` [Compound 318] showed an EC50 in assay [1] of over 20 µM. Moreover, the IC50 in assay [2] is under 1 µM.
In the same order, the values of `CN(C(=O)c1ccc(CNc2nc3ccc(N)cc3n2C)cc1)c1ccc(Cl)cn1` [Compound 319] are over 20 µM and under 1 µM.
The matching figures for `CN(C(=O)c1ccc(CNc2nc3ccc(NC4COC4)cc3n2C)cc1)c1ccc(Cl)cn1` [Compound 320]: over 20 µM and under 1 µM.
Take `Cn1c(NCc2ccc(Oc3ncc(Cl)cc3Cl)cc2)nc2ccc(N)cc21` [Compound 321]: the EC50 in assay [1] was 10 to 20 µM. The IC50 in assay [2] was under 1 µM.
The matching figures for `Cn1c(NCc2ccc(Oc3ncc(Cl)cc3Cl)cc2)nc2ccc(NC3COC3)cc21` [Compound 322]: under 10 µM and over 10 µM.
In the same order, the values of `Cn1c(NCc2ccc(Oc3ncc(Cl)cc3F)cc2)nc2ccc(N)cc21` [Compound 323] are under 10 µM and under 1 µM.
Molecule `Cn1c(NCc2ccc(Oc3ccc(Cl)cn3)cc2)nc2ccc(NC(C)(C)CO)cc21` [Compound 325] yielded an EC50 in assay [1] of under 10 µM. The IC50 in assay [2] was under 1 µM.
In the same order, the values of `Cn1c(NCc2ccc(Oc3ccc(Cl)cn3)cc2)nc2ccc(NC(C)(C)C(=O)O)cc21` [Compound 326] are under 10 µM and under 1 µM.
The matching figures for `COc1cc(Oc2ccc(Cl)cn2)ccc1CNc1nc2ccc(N)cc2n1C` [Compound 327]: under 10 µM and under 1 µM.
On to `Cn1c(NCc2ccc(Oc3ccc(Cl)cn3)cc2)nc2ccc(NCCc3ccccn3)cc21` [Compound 329], for which the EC50 in assay [1] is under 10 µM. The IC50 in assay [2] was under 1 µM.
In the same order, the values of `COc1ccc(Oc2ccc(CNc3nc4ccc(N)cc4n3C)cc2)nc1` [Compound 330] are under 10 µM and under 1 µM.
In assay [1], `COc1ccc(Oc2ccc(CNc3nc4ccc(NC5COC5)cc4n3C)cc2)nc1` [Compound 331] returned an EC50 of under 10 µM. Also, in assay [2], the IC50 is under 1 µM.
Turning to `CN(C)CCn1c(NCc2ccc(Oc3ccc(Cl)cn3)cc2)nc2ccc(NC3COC3)cc21` [Compound 332], the EC50 in assay [1] is under 10 µM. For the same molecule, the IC50 in assay [2] was under 1 µM.
Regarding `CN1CCN(CCNc2ccc3nc(NCc4ccc(Oc5ccc(Cl)cn5)cc4)n(C)c3c2)CC1` [Compound 333], the EC50 in assay [1] is under 10 µM. In addition, in assay [2], the IC50 was under 1 µM.
The matching figures for `Cc1cc(Oc2ccc(Cl)cn2)cc(C)c1CNc1nc2ccc(N)cc2n1C` [Compound 334]: 10 to 20 µM and under 1 µM.
The matching figures for `Cc1cc(Oc2ccc(Cl)cn2)cc(C)c1CNc1nc2ccc(NC3COC3)cc2n1C` [Compound 335]: under 10 µM and under 1 µM.
The matching figures for `COCCN(Cc1ccc(Oc2ccc(Cl)cn2)cc1)c1nc2ccc(N)cc2n1C` [Compound 338]: over 20 µM and under 1 µM.
In turn, `COCCN(Cc1ccc(Oc2ccc(Cl)cn2)cc1)c1nc2ccc(NC3COC3)cc2n1C` [Compound 339] yielded a half-maximal effective concentration (EC50) in assay [1] of 10 to 20 µM. For the same molecule, in assay [2], the IC50 is under 1 µM.
The matching figures for `Cn1c(NCc2ccc(Oc3cnc(Cl)nc3)cc2)nc2ccc(N)cc21` [Compound 340]: under 10 µM and under 1 µM.
The matching figures for `Cn1c(NCc2ccc(OCc3ncco3)cc2)nc2ccc(N)cc21` [Compound 342]: under 10 µM and under 1 µM.
Regarding `Cn1c(NCc2ccc(Oc3ccccn3)cc2)nc2ccc(N)cc21` [Compound 346], in assay [1], the EC50 was under 10 µM. Further, the concentration for half-maximal inhibition (IC50) in assay [2] was under 1 µM.
The matching figures for `Cn1c(NCc2ccc(Oc3ccccn3)cc2)nc2ccc(NC3COC3)cc21` [Compound 347]: under 10 µM and under 1 µM.
In the same order, the values of `Cc1cnc(Oc2ccc(CNc3nc4ccc(N)cc4n3C)cc2)nc1` [Compound 348] are over 20 µM and under 1 µM.
As to `Cc1cnc(Oc2ccc(CNc3nc4ccc(NC5COC5)cc4n3C)cc2)nc1` [Compound 349], in assay [1], the EC50 was under 10 µM. For the same molecule, the half-maximal inhibitory concentration (IC50) in assay [2] was under 1 µM.
In the same order, the values of `Cc1ccc(Oc2ccc(CNc3nc4ccc(N)cc4n3C)cc2)nc1` [Compound 352] are under 10 µM and under 1 µM.
The matching figures for `Cc1ccc(Oc2ccc(CNc3nc4ccc(NC5COC5)cc4n3C)cc2)nc1` [Compound 353]: under 10 µM and under 1 µM.

(Values after US11447486B2, “2-amino-benzimidazole derivatives and their use as 5-lipoxygenase and/or prostaglandin E synthase inhibitors” (INSTITUT PASTEUR KOREA, priority 2014, dated 2022).)
